Measured values from the supplement of paper PMC10307832.

What was measured:
Assay in all cases: relative viability (nuclei count vs DMSO), 5 days (fraction); higher = more cells survive
Bleomycin + Dasatinib = compound: CC1=C(N=C(N=C1N)[C@H](CC(=O)N)NC[C@@H](C(=O)N)N)C(=O)N[C@@H]([C@H](C2=CN=CN2)OC3C(C(C(C(O3)CO)O)O)OC4C(C(C(C(O4)CO)O)OC(=O)N)O)C(=O)N[C@H](C)[C@H]([C@H](C)C(=O)N[C@@H]([C@@H](C)O)C(=O)NCCC5=NC(=CS5)C6=NC(=CS6)C(=O)NCCC[S+](C)C)O [Bleomycin] + Cc1nc(Nc2ncc(C(=O)Nc3c(C)cccc3Cl)s2)cc(N2CCN(CCO)CC2)n1 [Dasatinib] (partner 0.075 µM); conditions: main component drawn
Procedure, shortened: (§1)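 Dosing by pin tool came one day after lung cancer cell lines were seeded in 1536-well plates, using either one drug or a fixed anchor-drug dose plus five library-drug doses (not always all listed) in √10 steps. After 5 days, nuclei were counted on 4× images. Relative viability is treated-well nuclei count divided by vehicle-well nuclei count, and values are medians of duplicate plates.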

Etoposide + Trametinib = compound: COc1cc([C@@H]2c3cc4c(cc3[C@@H](O[C@@H]3O[C@@H]5CO[C@@H](C)O[C@H]5[C@H](O)[C@H]3O)[C@H]3COC(=O)[C@H]23)OCO4)cc(OC)c1O [Etoposide] + CC(=O)Nc1cccc(-n2c(=O)n(C3CC3)c(=O)c3c(Nc4ccc(I)cc4F)n(C)c(=O)c(C)c32)c1 [Trametinib] (partner 0.02 µM)
Procedure, shortened: as §1

Etoposide + Pictilisib = compound: COc1cc([C@@H]2c3cc4c(cc3[C@@H](O[C@@H]3O[C@@H]5CO[C@@H](C)O[C@H]5[C@H](O)[C@H]3O)[C@H]3COC(=O)[C@H]23)OCO4)cc(OC)c1O [Etoposide] + CS(=O)(=O)N1CCN(Cc2cc3nc(-c4cccc5[nH]ncc45)nc(N4CCOCC4)c3s2)CC1 [Pictilisib] (partner 1 µM)
Procedure, shortened: as §1

Etoposide + Foretinib = compound: COc1cc([C@@H]2c3cc4c(cc3[C@@H](O[C@@H]3O[C@@H]5CO[C@@H](C)O[C@H]5[C@H](O)[C@H]3O)[C@H]3COC(=O)[C@H]23)OCO4)cc(OC)c1O [Etoposide] + COc1cc2c(Oc3ccc(NC(=O)C4(C(=O)Nc5ccc(F)cc5)CC4)cc3F)ccnc2cc1OCCCN1CCOCC1 [Foretinib] (partner 0.25 µM)
Procedure, shortened: as §1

Cell Line	relative viability (Bleomycin + Dasatinib; first compound 0.01 µM)	relative viability (Bleomycin + Dasatinib; first compound 0.03162 µM)	relative viability (Bleomycin + Dasatinib; first compound 0.1 µM)	relative viability (Bleomycin + Dasatinib; first compound 0.3162 µM)	relative viability (Bleomycin + Dasatinib; first compound 1 µM)	relative viability (Etoposide + Trametinib; first compound 0.01 µM)	relative viability (Etoposide + Trametinib; first compound 0.03162 µM)	relative viability (Etoposide + Trametinib; first compound 0.1 µM)	relative viability (Etoposide + Trametinib; first compound 0.3162 µM)	relative viability (Etoposide + Trametinib; first compound 1 µM)	relative viability (Etoposide + Pictilisib; first compound 0.01 µM)	relative viability (Etoposide + Pictilisib; first compound 0.03162 µM)	relative viability (Etoposide + Pictilisib; first compound 0.1 µM)	relative viability (Etoposide + Pictilisib; first compound 0.3162 µM)	relative viability (Etoposide + Pictilisib; first compound 1 µM)	relative viability (Etoposide + Foretinib; first compound 0.01 µM)	relative viability (Etoposide + Foretinib; first compound 0.03162 µM)	relative viability (Etoposide + Foretinib; first compound 0.1 µM)	relative viability (Etoposide + Foretinib; first compound 0.3162 µM)	relative viability (Etoposide + Foretinib; first compound 1 µM)
RERF-LC-KJ	0.498	0.56	0.468	0.246	0.191	0.7	0.899	0.822	0.835	0.6	0.533	0.586	0.459	0.529	0.365	0.788	0.866	0.639	0.83	0.767
BEN	0.327	0.342	0.341	0.273	0.249	0.919	1.01		1.05	0.852	0.477	0.62		0.545	0.376	0.564	0.884		0.657	0.725
NCI-H1666	0.658	0.521	0.565	0.374	0.317	0.818	0.89	0.809	0.526	0.508	0.469	0.233	0.325	0.21	0.205	0.962	0.919	0.695	0.42	0.461
LC-2-ad	0.312	0.373	0.318	0.183	0.145	0.884	0.902	0.988	0.743	0.689	0.448	0.595	0.318	0.237	0.16	0.898	0.896	0.696	0.424	0.308
SW 1573	0.253	0.289	0.434	0.174	0.118	0.609	0.548	0.436	0.219	0.14	0.451	0.475	0.338	0.197	0.117	0.873	0.931	0.475	0.537	0.278
ChaGo-K-1	0.529	0.552	0.533	0.246	0.264	0.881	0.905	0.752	0.394	0.248	0.815	0.616	0.387	0.265	0.199	0.781	0.978	0.8	0.281	0.21
COR-L 105	0.325	0.35	0.307	0.238	0.215	0.443	0.479	0.439	0.437	0.398	0.374	0.395	0.337	0.327	0.335	0.926	1.3	1.02	1.02	0.645
NCI-H1975	0.34	0.343	0.287	0.13	0.115	0.303	0.425	0.284	0.268	0.236	0.304	0.328	0.225	0.276	0.168	0.914	0.938	0.895	0.91	0.286
NCI-H1993	0.548	0.604	0.597	0.462	0.464		0.619	0.441	0.481	0.444	0.804	0.802	0.806	0.915	0.66	0.788	0.906	0.557	0.733	0.51
SK-LU-1	0.169	0.166	0.173	0.144	0.104	0.446	0.411	0.394	0.258	0.236	0.603	0.597	0.308	0.277	0.174	0.765	0.701	0.484	0.329	0.18
NCI-H2347	0.258	0.295	0.266	0.169	0.23	0.25	0.301	0.25	0.269	0.278	0.921	0.757	0.309	0.285	0.392	0.844	0.981	0.515	0.59	0.387
HCC-366	0.504	0.412	0.444	0.0996	0.0443	0.338	0.36	0.249	0.0581	0.0512	0.198	0.188	0.0748	0.0491	0.0362	0.961	0.848	0.442	0.12	0.0524
EMC-BAC-2	0.293	0.277	0.259	0.144	0.115	0.818	0.774	0.531	0.364	0.308	0.511	0.515	0.413	0.27	0.164	0.918	1.05	0.612	0.302	0.238
NCI-H3122	0.833	0.999	0.749	0.366	0.206	0.23	0.223	0.153	0.23	0.215	0.687	0.74	0.387	0.576	0.349	0.972	0.975	0.962	0.682	0.449
NCI-H358	0.183	0.165	0.176	0.107	0.156	0.141	0.122	0.119	0.118	0.0938	0.382	0.336	0.259	0.23	0.16	0.705	0.756	0.447	0.184	0.134
